# Patent publication US20260356860A1, “2-SUBSTITUTED 3,4A,5,7,8,8A-HEXAHYDRO-4H-THIOPYRANO[4,3-DJPYRIMIDIN-4-ONES FOR WOUND TREATMENT” (priority 2022, published 2026)
# Key:
# [1] = tested on: A. baumannii (derived from ATCC ® 19606 ™); assay: Bacteriostasis, log reduction; assay type: cell-based; settings: A. baumannii ATCC 19606
# [2] = tested on: E. coli (derived from ATCC ® 25922 ™); assay: Bacteriostasis, log reduction; assay type: cell-based; settings: E. coli ATCC 25922
# [3] = tested on: E. coli (derived from ATCC ® 8739 ™); assay: Bacteriostasis, log reduction; assay type: cell-based; settings: E. coli ATCC 8739
# [4] = tested on: P. aeruginosa (derived from ATCC ® 15442 ™); assay: Bacteriostasis, log reduction; assay type: cell-based; settings: P. aeruginosa ATCC 15442
# [5] = tested on: P. vulgaris (derived from ATCC ® 8427 ™); assay: Bacteriostasis, log reduction; assay type: cell-based; settings: P. vulgaris ATCC 8427
# [6] = tested on: S. aureus (derived from ATCC ® 6538 ™); assay: Bacteriostasis, log reduction; assay type: cell-based; settings: S. aureus ATCC 6538
# [7] = tested on: S. epidermidis (derived from ATCC ® 14990 ™); assay: Bacteriostasis, log reduction; assay type: cell-based; settings: S. epidermidis ATCC 14990
# [8] = tested on: S. maltophilia (derived from ATCC ® 13637 ™); assay: Bacteriostasis, log reduction; assay type: cell-based; settings: S. maltophilia ATCC 13637
# [9] = tested on: S. pyogenes (derived from ATCC ® 19615 ™); assay: Bacteriostasis, log reduction; assay type: cell-based; settings: S. pyogenes ATCC 19615
# new porcine skin = assay: Energy peak of healed wound; assay type: in vivo; settings: day 21
# Protocol: Additional tests were performed including elasticity (Table 12); max force (Table 13); tensile strength (strain) (Table 14); energy peak (Table 15); rete-ridge formation; and collagen organization (plane polarized light) (FIG. 24) of the healed wound sites, described as follows.
# A is saline (control), B is serum formulation (vehicle), C is GO-HA (vehicle), D is Compound 1; E is Compound 1+GO-HA; F is Compound 8; G is Compound 8+GO-HA; H is Compound 10; and J is Compound 10+GO-HA.
# Energy Peak (N*mm) is the maximum force applied to a material over time. All compounds of Formula (I) tested with or without GO-HA ranged from 5% to 41% improvement in energy peak compared to the saline control. […] The vehicle, GO-HA, provided a 61% improvement in energy peak over the saline control.
structure (smiles),measurement,setting,value
"O=c1[nH]c(-c2ccc(-c3ccc(B(O)O)cc3)cc2)nc2c1CSCC2 [Compound 10, (4′-(4-oxo-3,5,7,8-tetrahydro-4H-thiopyrano[4,3-d]pyrimidin-2-yl)-[1,1′-biphenyl]-4-yl)boronic acid]",Average result,[1]; 24 h,<200
same,Log Reduction,[1]; 24 h,>3.0
same,Log Value,[1]; 24 h,<2.3
same,Average result,[1]; 72 h,<200
same,Log Reduction,[1]; 72 h,>3.0
same,Log Value,[1]; 72 h,<2.3
same,Average result,[2]; 24 h,<200
same,Log Reduction,[2]; 24 h,>3.1
same,Log Value,[2]; 24 h,<2.3
same,Average result,[2]; 72 h,<200
same,Log Reduction,[2]; 72 h,>3.1
same,Log Value,[2]; 72 h,<2.3
same,Average result,[3]; 24 h,<200
same,Log Reduction,[3]; 24 h,>3.2
same,Log Value,[3]; 24 h,<2.1
same,Average result,[3]; 72 h,6.0 × 10^2
same,Log Reduction,[3]; 72 h,2.5
same,Log Value,[3]; 72 h,2.8
same,Average result,[4]; 24 h,<200
same,Log Reduction,[4]; 24 h,>3.1
same,Log Value,[4]; 24 h,<2.3
same,Average result,[4]; 72 h,<200
same,Log Reduction,[4]; 72 h,>3.1
same,Log Value,[4]; 72 h,<2.3
same,Average result,[5]; 24 h,<200
same,Log Reduction,[5]; 24 h,>3.6
same,Log Value,[5]; 24 h,<2.3
same,Average result,[5]; 72 h,<200
same,Log Reduction,[5]; 72 h,>3.6
same,Log Value,[5]; 72 h,<2.3
same,Average result,[6]; 24 h,1.5 × 10^5
same,Log Reduction,[6]; 24 h,0.1
same,Log Value,[6]; 24 h,5.2
same,Average result,[6]; 72 h,6.7 × 10^3
same,Log Reduction,[6]; 72 h,1.5
same,Log Value,[6]; 72 h,3.8
same,Average result,[7]; 24 h,1.1 × 10^4
same,Log Reduction,[7]; 24 h,0.8
same,Log Value,[7]; 24 h,4.0
same,Average result,[7]; 72 h,3.3 × 10^2
same,Log Reduction,[7]; 72 h,2.3
same,Log Value,[7]; 72 h,2.5
same,Average result,[8]; 24 h,<200
same,Log Reduction,[8]; 24 h,>2.8
same,Log Value,[8]; 24 h,<2.3
same,Average result,[8]; 72 h,<200
same,Log Reduction,[8]; 72 h,>2.8
same,Log Value,[8]; 72 h,<2.3
same,Average result,[9]; 24 h,<200
same,Log Reduction,[9]; 24 h,>3.2
same,Log Value,[9]; 24 h,<2.3
same,Average result,[9]; 72 h,<200
same,Log Reduction,[9]; 72 h,>3.2
same,Log Value,[9]; 72 h,<2.3
same,improvement in energy peak compared to the saline control,new porcine skin,41%
same,Energy Peak,"new porcine skin; topical, individual value 1",3149.241 N*mm
same,Energy Peak,"new porcine skin; topical, individual value 2",3038.880 N*mm
same,Energy Peak,"new porcine skin; topical, individual value 3",2645.076 N*mm
same,Energy Peak,"new porcine skin; topical, individual value 4",2623.098 N*mm
same,"Energy Peak, Mean","new porcine skin; topical, mean",2864.074 N*mm
